Where two headings read alike, the source gives them in different places. Positions of bridges follow the written chain, without caps; N, C: chain ends. Non-standard residues stand in square brackets, D forms with d. Residues, ends and D or L forms follow the SMILES beside them. dPhe(4-CN) = N#Cc1ccc(C[C@@H](N)C(=O)O)cc1; Orn = NCCC[C@H](N)C(=O)O
Key:
[1] = biological target: T1, hMC4-R (Homo sapiens (Human), UniProt P32245); assay: Competitive inhibition binding assay using [I125]-NDP-α-MSH, hMC4-R; conditions: membranes of HEK-293 cells expressing recombinant hMC4-R, read-out: MC4-R Ki
Method: 7.1 Competitive Inhibition Assay using [I^125]-NDP-α-MSH.
A competitive inhibition binding assay was performed for exemplified peptides according to the invention using membrane homogenates prepared from HEK-293 cells that express recombinant hMC4-R, hMC3-R, or hMC5-R, and from B-16 mouse melanoma cells (containing endogenous MC1-R). In some instances, HEK-293 cells that express recombinant hMC1-R were employed. Assays were performed in 96 well GF/B Millipore multiscreen filtration plates (MAFB NOB10) pre-coated with 0.5% bovine serum albumin (Fraction V). Membrane homogenates were incubated with 0.2 nM (for hMC4-R) 0.4 nM (for MC3-R and MC5-R) or 0.1 nM (for mouse B16 MC1-R or hMC1-R) [I^125]-NDP-α-MSH (Perkin Elmer) and increasing concentrations of test peptides of the present invention in buffer containing 25 mM HEPES buffer (pH 7.5) with 100 mM NaCl, 2 mM CaCl2, 2 mM MgCl2, 0.3 mM 1,10-phenanthroline, and 0.2% bovine serum albumin. After incubation for 60 minutes at 37° C., the assay mixture was filtered and the membranes washed three times with ice-cold buffer. Filters were dried and counted in a gamma counter for bound radioactivity. […] Maximal specific binding (100%) was defined as the difference in radioactivity (cpm) bound to cell membranes in the absence and presence of 1 μM NDP-α-MSH. […] Each assay was conducted in triplicate and the actual mean values are described, with results less than 0% reported as 0%. Ki values for test peptides of the present invention were determined using Graph-Pad Prism® curve-fitting software.

[2] = biological target: T1, hMC4-R; assay: High and low density hMC4-R functional assay (cAMP, HEK293-T-REx-MC4-R cells); format: cell-based; conditions: for Emax: NDP-α-MSH = 100%, read-out: Intrinsic Activity (%)
Method: The cells were then dispensed into 96-well plates (BD 353916) in 198 μL (about 5×10^4) cells/well and incubated for 10 minutes at 37° C. The compound to be tested was diluted with DMSO to a final concentration of 1 mM. […] 120 μL of the 1 mM compound stock was pipetted in the second column on the plate. […] All assay samples were run in duplicate (i.e. each sample was in two low dox and two high dox plates, respectively). The plates were gently shaken and incubated for 15 minutes at 37° C.

[3] = 0.1 ng/mL Doxycycline (low density hMC4-R system)
[4] = 10 ng/mL Doxycycline (high density hMC4-R system)

T1 sequence (P32245 whole entry): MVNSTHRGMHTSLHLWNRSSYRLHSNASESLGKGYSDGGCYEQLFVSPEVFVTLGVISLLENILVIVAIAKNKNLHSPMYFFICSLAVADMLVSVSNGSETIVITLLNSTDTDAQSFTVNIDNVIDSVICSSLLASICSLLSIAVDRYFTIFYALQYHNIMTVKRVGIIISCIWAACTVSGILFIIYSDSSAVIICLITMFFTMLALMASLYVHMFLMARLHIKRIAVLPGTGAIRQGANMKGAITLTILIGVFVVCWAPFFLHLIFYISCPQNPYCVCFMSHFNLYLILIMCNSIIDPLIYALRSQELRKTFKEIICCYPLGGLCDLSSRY

| Ki [1] | EC50 [2, 3] | Emax [2, 3] | EC50 [2, 4] | Emax [2, 4] | SMILES |
| --- | --- | --- | --- | --- | --- |
| 0.5 nM | 0.14 nM | 83% | 0.085 nM | 97% | CC(=O)N[C@@H](CCCNC(=N)N)C(=O)N[C@H]1CCC(=O)NCCC[C@@H](C(N)=O)NC(=O)[C@H](Cc2c[nH]c3ccccc23)NC(=O)[C@H](CCCNC(=N)N)NC(=O)[C@@H](Cc2ccccc2C)NC(=O)[C@H](CCN)NC1=O [Example 18, Ac-Arg-cyclo(Glu-Dab-D-Phe(2-Me)-Arg-Trp-Orn)-NH2] |
| – | – | 49% | 0.1 nM | 100% | CC(=O)N[C@@H](CCCNC(=N)N)C(=O)N[C@H]1CCC(=O)NCCC[C@@H](C(=O)O)NC(=O)[C@H](Cc2c[nH]c3ccccc23)NC(=O)[C@H](CCCNC(=N)N)NC(=O)[C@@H](Cc2cc(F)c(F)c(F)c2)NC(=O)[C@H](CCC(N)=O)NC1=O [Example 97, Ac-Arg-cyclo(Glu-Gln-D-Phe(3,4,5-triF)-Arg-Trp-Orn)-NH2] |
| 10 nM | – | 6% | 1 nM | 84% | CC(=O)N[C@@H](CCCNC(=N)N)C(=O)N[C@H]1CCC(=O)NCCC[C@@H](C(N)=O)NC(=O)[C@H](Cc2c[nH]c3ccccc23)NC(=O)[C@H](CCCNC(=N)N)NC(=O)[C@@H](Cc2cccc(Cl)c2)NC(=O)[C@H](CO)NC1=O [Example 35, Ac-Arg-cyclo(Glu-Ser-D-Phe(3-Cl)-Arg-Trp-Orn)-NH2] |
| 0.95 nM | 8 nM | 16% | 0.4 nM | 93% | CC(=O)N[C@@H](CCCNC(=N)N)C(=O)N[C@H]1CCC(=O)NCCC[C@@H](C(N)=O)NC(=O)[C@H](Cc2c[nH]c3ccccc23)NC(=O)[C@H](CCCNC(=N)N)NC(=O)[C@@H](Cc2cccc(C(F)(F)F)c2)NC(=O)[C@H](CCN)NC1=O [Example 14, Ac-Arg-cyclo(Glu-Dab-D-Phe(3-CF3)-Arg-Trp-Orn)-NH2] |
| 35 nM | 75 nM | 23% | 2 nM | 94% | COc1ccc(C[C@H]2NC(=O)[C@H](CCN)NC(=O)[C@@H](NC(=O)[C@H](CCCNC(=N)N)NC(C)=O)CCC(=O)NCCC[C@@H](C(N)=O)NC(=O)[C@H](Cc3c[nH]c4ccccc34)NC(=O)[C@H](CCCNC(=N)N)NC2=O)cc1OC [Example 25, Ac-Arg-cyclo(Glu-Dab-D-Phe(3,4-diOMe)-Arg-Trp-Orn)-NH2] |
| – | 15 nM | 36% | – | 94% | CC(=O)N[C@@H](CCCNC(=N)N)C(=O)N[C@H]1CCC(=O)NCCC[C@@H](C(=O)O)NC(=O)[C@H](Cc2c[nH]c3ccccc23)NC(=O)[C@H](CCCNC(=N)N)NC(=O)[C@@H](Cc2ccc(C#N)cc2)NC(=O)[C@H](CC(N)=O)NC1=O [Example 85, Ac-Arg-cyclo(Glu-Asn-D-Phe(4-CN)-Arg-Trp-Orn)-OH] |
| 0.06 nM | – | 0.5% | 0.75 nM | 53% | CC(=O)N[C@@H](CCCNC(=N)N)C(=O)N[C@H]1CCC(=O)NCCC[C@@H](C(N)=O)NC(=O)[C@H](Cc2c[nH]c3ccccc23)NC(=O)[C@H](CCCNC(=N)N)NC(=O)[C@@H](Cc2ccc(C(F)(F)F)cc2)NC(=O)[C@H](CCN)NC1=O [Example 20, Ac-Arg-cyclo(Glu-Dab-D-Phe(4-CF3)-Arg-Trp-Orn)-NH2] |
| 0.145 nM | 0.165 nM | 16% | 0.2 nM | 90% | CC(=O)N[C@@H](CCCNC(=N)N)C(=O)N[C@H]1CCC(=O)NCCC[C@@H](C(N)=O)NC(=O)[C@H](Cc2c[nH]c3ccccc23)NC(=O)[C@H](CCCNC(=N)N)NC(=O)[C@@H](Cc2ccc(C)cc2)NC(=O)[C@H](CCN)NC1=O [Example 15, Ac-Arg-cyclo(Glu-Dab-D-Phe(4-Me)-Arg-Trp-Orn)-NH2] |
| 6 nM | 0.75 nM | 78% | 0.075 nM | 94% | CC(=O)N[C@H](CCCNC(=N)N)C(=O)N[C@H]1CC(=O)NCCCC[C@@H](C(N)=O)NC(=O)[C@H](Cc2c[nH]c3ccccc23)NC(=O)[C@H](CCCNC(=N)N)NC(=O)[C@@H](Cc2ccc(F)cc2)NC(=O)[C@H](CCC(N)=O)NC1=O [Example 83, Ac-D-Arg-cyclo(Asp-Gln-D-Phe(4-F)-Arg-Trp-Lys)-NH2] |
| 4 nM | – | 6% | 0.95 nM | 89% | CC(=O)N[C@@H](CCCNC(=N)N)C(=O)N[C@H]1CCC(=O)NCCC[C@@H](C(N)=O)NC(=O)[C@H](Cc2c[nH]c3ccccc23)NC(=O)[C@H](CCCNC(=N)N)NC(=O)[C@@H](Cc2cccc(Cl)c2)NC(=O)[C@H](CN)NC1=O [Example 61, Ac-Arg-cyclo(Glu-Dap-D-Phe(3-Cl)-Arg-Trp-Orn)-NH2] |
| – | – | 16% | 10 nM | 100% | CC(=O)N[C@@H](CCCNC(=N)N)C(=O)N[C@H]1CC(=O)NCCCC[C@@H](C(N)=O)NC(=O)[C@H](Cc2c[nH]c3ccccc23)NC(=O)[C@H](CCCNC(=N)N)NC(=O)[C@@H](Cc2ccccc2F)NC(=O)[C@@H]2CCCN2C1=O [Example 104, Ac-Arg-cyclo(Asp-Pro-D-Phe(2-F)-Arg-Trp-Lys)-NH2] |
| – | – | 32% | 0.09 nM | 92% | CC(=O)N[C@@H](CCCNC(=N)N)C(=O)N[C@H]1CCCNC(=O)CC[C@@H](C(N)=O)NC(=O)[C@H](Cc2c[nH]c3ccccc23)NC(=O)[C@H](CCCNC(=N)N)NC(=O)[C@@H](Cc2ccc(C#N)cc2)NC(=O)[C@H](CCC(N)=O)NC1=O [Example 94, Ac-Arg-cyclo(Orn-Gln-D-Phe(4-CN)-Arg-Trp-Glu)-NH2] |
| – | 0.45 nM | 47% | 0.14 nM | 100% | CC(=O)N[C@@H](CCCNC(=N)N)C(=O)N[C@H]1CCCNC(=O)CC[C@@H](C(N)=O)NC(=O)[C@H](Cc2c[nH]c3ccccc23)NC(=O)[C@H](CCCNC(=N)N)NC(=O)[C@@H](Cc2cc(F)c(F)c(F)c2)NC(=O)[C@H](CCC(N)=O)NC1=O [Example 98, Ac-Arg-cyclo(Orn-Gln-D-Phe(3,4,5-triF)-Arg-Trp-Glu)-NH2] |
| – | 18 nM | – | – | – | CC(=O)N[C@@H](CCCNC(=N)N)C(=O)N[C@H]1CCC(=O)NCCC[C@@H](C(N)=O)NC(=O)[C@H](Cc2c[nH]c3ccccc23)NC(=O)[C@H](CCCNC(=N)N)NC(=O)[C@@H](Cc2ccc(F)cc2)NC(=O)[C@@H]2CCCN2C1=O [Example 102, Ac-Arg-cyclo(Glu-Pro-D-Phe(4-F)-Arg-Trp-Orn)-OH] |
| – | – | 2% | – | 69% | CC(=O)N[C@@H](CCCNC(=N)N)C(=O)N[C@H]1CCC(=O)NCCC[C@@H](C(=O)O)NC(=O)[C@H](Cc2c[nH]c3ccccc23)NC(=O)[C@H](CCCNC(=N)N)NC(=O)[C@@H](Cc2ccc(C#N)cc2)NC(=O)[C@H](CCC(=O)O)NC1=O [Example 109, Ac-Arg-cyclo(Glu-Glu-D-Phe(4-CN)-Arg-Trp-Orn)-OH] (Ac-REE[dPhe(4-CN)]RW[Orn]-OH; lactam 2-7) |
| – | 4 nM | 23% | 0.45 nM | 85% | CC(=O)N[C@H](CCCNC(=N)N)C(=O)N[C@H]1CC(=O)NCCCC[C@@H](C(N)=O)NC(=O)[C@H](Cc2c[nH]c3ccccc23)NC(=O)[C@H](CCCNC(=N)N)NC(=O)[C@@H](Cc2ccc(C#N)cc2)NC(=O)[C@H](CCC(N)=O)NC1=O [Example 81, Ac-D-Arg-cyclo(Asp-Gln-D-Phe(4-CN)-Arg-Trp-Lys)-NH2] |

Source: US9040663B2, “Melanocortin receptor-specific peptides” (AstraZeneca AB, priority 2009, dated 2015)
